From ChEMBL document CHEMBL1201862, “PubChem BioAssay data set” (2004)
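All cell lines were grown in 96-well plates and treated with compound for 48 hours. GI50: concentration for 50% inhibition of growth.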 Calls of active or inactive are those of the source. No stated cut-off is given here; in the data, active = GI50 up to about 1.1 µM and inactive = higher.

Columns and labels:
Test in all cases: NCI anticancer screen, dose series, 48 h
CCRF-CEM = test system: CCRF-CEM
NCI-H226 = test system: NCI-H226
Malme-3M = test system: Malme-3M
ACHN = test system: ACHN
MOLT-4 = test system: MOLT-4
U-251 = test system: U-251
A498 = test system: A498
RXF 393 = test system: RXF 393
MDA-MB-435 = test system: MDA-MB-435
NCI-H522 = test system: NCI-H522
SNB-75 = test system: SNB-75
MDA-MB-231 = test system: MDA-MB-231
OVCAR-8 = test system: OVCAR-8
DU-145 = test system: DU-145
KM12 = test system: KM12
SK-MEL-5 = test system: SK-MEL-5
A549 = test system: A549
HCT-116 = test system: HCT-116
SF-295 = test system: SF-295
HOP-62 = test system: HOP-62

SMILES | GI50 (CCRF-CEM) | GI50 (NCI-H226) | GI50 (Malme-3M) | GI50 (ACHN) | GI50 (MOLT-4) | GI50 (U-251) | GI50 (A498) | GI50 (RXF 393) | GI50 (MDA-MB-435) | GI50 (NCI-H522) | GI50 (SNB-75) | GI50 (MDA-MB-231) | GI50 (OVCAR-8) | GI50 (DU-145) | GI50 (KM12) | GI50 (SK-MEL-5) | GI50 (A549) | GI50 (HCT-116) | GI50 (SF-295) | GI50 (HOP-62)
Cc1cc(Cc2cc(Cc3cc(C)cc(C(C)(C)C)c3O)c(C)cc2C)c(O)c(C(C)(C)C)c1 | 16 µM (inactive) | 14.8 µM (inactive) | 12.5 µM (inactive) | 16.1 µM (inactive) | 16.9 µM (inactive) | > 100 µM (inactive) | 16.1 µM (inactive) | 12 µM (inactive) | 13 µM (inactive) | 14.3 µM (inactive) | 11.2 µM (inactive) | > 100 µM (inactive) | 24.9 µM (inactive) | 14.5 µM (inactive) | 16.6 µM (inactive) | 16.6 µM (inactive) | 15.4 µM (inactive) | 16.4 µM (inactive) | 18.9 µM (inactive) | 17.5 µM (inactive)
CN(C)CCNC(=O)c1ccc(NCCCN(C)CCCNc2ccc(C(=O)NCCN(C)C)c3nc4ccccc4c(O)c23)c2c(O)c3ccccc3nc12 | < 0.012 µM (active) | < 0.0317 µM (active) | < 0.0153 µM (active) | 0.0466 µM (active) | < 0.01 µM (active) | < 0.01 µM (active) | 0.13 µM (active) | 0.146 µM (active) | 0.0101 µM (active) | < 0.01 µM (active) | < 0.01 µM (active) | 0.111 µM (active) | < 0.01 µM (active) | < 0.0114 µM (active) | < 0.0116 µM (active) | 0.158 µM (active) | < 0.01 µM (active) | < 0.01 µM (active) | 0.0442 µM (active) | < 0.01 µM (active)
